Measurements reported in patent US8354374B2, “Peptides having pharmacological activity for treating disorders associated with altered cell migration, such as cancer” (Pharmaphelix S.R.L., priority 2006, dated 2013).
Square brackets hold non-standard residues; d marks the D form. Peptide text beside a SMILES is read from it. ξ: configuration not given here. ξαMeF = CC(N)(Cc1ccccc1)C(=O)O; Aib = CC(C)(N)C(=O)O

Tests used:
[1] = test system: human fibrosarcoma HT1080 cells; assay: Directional migration towards 10% FBS in Boyden chamber; format: cell-based
Procedure: The effect of PICM57 described in example 3 on the cell migration of human fibrosarcoma HT1080 cells was tested. A Boyden chamber equipped with polycarbonate filters, having pores with a diameter of 8 μm (Nucleopore), free of polyvinylpyrrolidone and coated with 5 μg/ml of vitronectin (Promega), was used, as reported in the literature (Carriero et al., Cancer Res. 59, 5307, 1999). 3×10^4 cells, in serum-free DMEM (Dulbecco Modified Eagle Medium), were deposited in the upper compartment of the Boyden chamber. The lower chamber was packed with DMEM containing 10% FBS (Foetal Bovine Serum) as a source of chemotactics, in the presence of increasing concentrations of PICM57. The cells were incubated for 4 h at 37° C. in humidified air containing 5% CO2. After incubation, the cells adhering to the upper surface of the filter were mechanically removed, and the migrated cells adhering to the lower surface of the filter were fixed in ethanol, stained with haematoxylin, and counted at 200× in 10 fields/filter chosen at random. The directional migration in response to FBS in the absence of PICM57 was taken as 100% and the effect of PICM57 on cell migration was evaluated in percentage terms. The data represent the average of three independent experiments conducted in duplicate. The antagonistic effect of PICM57 on migration of HT1080 cells towards FBS is dose-dependent (Table 2). It begins at concentrations of 1 aM, reaches 50% of its maximum value at concentrations of 1 fM, and reaches the maximum effect at concentrations of 10 fM (66% of inhibition).
The mobility induced by FBS in the presence of Metastin[45-54] was evaluated under the same experimental conditions (Table 3). […]

FPR = target: T1, FPR (Homo sapiens, UniProt P21462); details: cells pre-incubated with 10 μM peptide
T1 sequence (P21462 1-350): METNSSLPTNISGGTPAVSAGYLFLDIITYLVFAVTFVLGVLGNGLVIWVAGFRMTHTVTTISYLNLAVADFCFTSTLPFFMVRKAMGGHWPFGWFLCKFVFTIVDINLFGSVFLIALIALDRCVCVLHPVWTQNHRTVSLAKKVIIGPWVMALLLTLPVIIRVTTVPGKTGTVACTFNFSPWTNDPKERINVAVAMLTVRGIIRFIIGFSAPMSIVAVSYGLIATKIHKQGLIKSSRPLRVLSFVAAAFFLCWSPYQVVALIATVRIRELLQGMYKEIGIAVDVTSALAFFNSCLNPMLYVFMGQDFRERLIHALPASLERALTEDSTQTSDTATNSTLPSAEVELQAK

[2] = test system: HUVEC cells (Human Umbilical Vein Endothelial Cells); assay: In vitro neo-angiogenesis: VEGF-dependent tubule formation on matrigel; format: cell-based
Procedure: The in vitro neo-angiogenesis tests were conducted by exploiting the ability of endothelial cells to form, in the presence of pro-angiogenic factors, cords which extend to form a network of microtubules on a layer of polymerised matrigel. For this type of assay, 5×10^4 HUVEC cells (Human Umbilical Vein Endothelial Cells) per well were plated in 24-well plates, in which 300 μl of matrigel was left to polymerise in the presence of 40 ng/ml of VEGF (Vascular Endothelial Growth Factor), used as pro-angiogenic agent, and the peptides indicated, at different concentrations. Tubule formation was evaluated after 18 hours' incubation at 37° C. in 5% CO2, by counting the number of tubular structures in at least 5 fields, chosen at random, with an inverted microscope. The effect of the peptides on VEGF-dependent tubule-forming activity is calculated as a percentage of the number of tubular structures counted in the presence of VEGF (taken as 100%). The data (Table 9) represent the average of two experiments conducted in duplicate. The antagonistic effect of PICM1 and PICM57 on neo-angiogenesis in vitro is dose-dependent. This effect begins at concentrations of aM and reaches the peak action at a concentration of pM (20% of the number of tubular structures counted); 50% of the maximum effect is reached at concentrations of fM. The anti-angiogenic effect exerted by 50 nM of endostatin and the low inhibitory effect exerted by metastin[45-54] are shown by way of comparison.

[3] = test system: human fibrosarcoma HT1080 cells; assay: In vitro cell invasion through matrigel towards 10% FBS (Boyden chamber); format: cell-based
Procedure: The in vitro cell invasion tests were conducted with Boyden chambers, using polyvinylpyrrolidone free filters, having pores with a diameter of 8 μm (Nucleopore), coated with 70 μg/filter of matrigel and DMEM containing 10% FBS as chemoattractant (Silvestri et al. Int. J. Cancer 102, 562-571, 2002). Human fibrosarcoma HT1080 cells (2×10^5 cells/sample) were deposited in the upper compartment of the chamber in a serum-free culture medium. The lower compartment of the chamber contained DMEM with the addition of 10% FBS as chemotactic source, and the peptides to be assayed, tested at the concentration indicated. The chambers, thus assembled, were placed at 37° C. in a humidified environment containing 5% CO2. After 18 hrs, the cells which had crossed the matrigel and adhered to the lower surface of the filters were fixed, stained and counted. The data represent the average of two independent experiments conducted in duplicate. The results, set out in Table 8, are expressed as the percentage of cells that invade the matrigel in the presence of FBS, but in the absence of peptide (100%). The inhibiting effect of PICM1 and PICM57 on the invasiveness of HT1080 cells is dose-dependent.

[4] = test system: human fibrosarcoma HT1080 cells in CD1 nude mice; assay: Anti-metastatic effect in vivo: pulmonary metastasis of HT1080 cells injected into the caudal vein; details: 3 mg/Kg every 48 h
Procedure: The anti-metastatic power of PICM1 was evaluated on an animal model. 2×10^6 human fibrosarcoma HT1080 cells, which cause pulmonary metastasis in the experimental model (Schweinitz A, et al., J. Biol. Chem. 279:33613, 2004), were suspended in saline solution and injected into the caudal vein of twenty 7-week-old CD1 nude mice. 24 hours after the inoculation of the tumour cells, groups of 10 animals were treated with a slow injection of 3 mg/Kg of PICM1, dissolved in 100 μl of saline solution, every 48 h, with the animal immobilised. The 10 control animals received the same injection treatment, but with the saline solution only. Each animal was weighed and inspected for dyspnoea every day. […] All the treated and control animals were sacrificed, and an autopsy was conducted. The lungs, liver, kidneys, spleen and heart were subjected to macroscopic and microscopic analysis.

[5] = test system: Cell lines of human or murine origin, derived from various tissues; assay: Directional migration towards 10% FBS, all the cell lines tested; format: cell-based; details: 100 pM PICM1
Procedure: Cell lines of human or murine origin, derived from various tissues, were subjected to in vitro directional migration tests employing Boyden chambers as described in example 4, and using 10% FBS as chemotactic source, in the presence/absence of 100 pM PICM1. Directional migration in response to FBS in the absence of PICM1 was taken as 100%, and the effect of PICM1 on cell migration was evaluated as a percentage of said value. The data represent the average of two independent experiments conducted in duplicate. In all the cell lines tested, an inhibiting effect of PICM1 on cell migration was observed (Table 4). Although the extent of the inhibition differs between the cell lines used, it was never less than 50%, and was also observed in murine melanoma B16 cells, which are unresponsive to Metastin (Ohtaki, T., et al. (2001) Nature 411, 613-617).

rat = details: acute
in vivo [6] = details: mouse
mouse = details: acute
in vivo [7] = details: rat
[8] = test system: murine melanoma B16 cells; details: Ohtaki et al. 2001; cited from earlier work
[9] = 10 pM peptide, 10% FBS alone = 100%
[10] = 10 nM peptide, 10% FBS alone = 100%
[11] = 1 aM peptide, migration toward 10% FBS alone = 100%
[12] = 10 aM peptide, 10% FBS alone = 100%
[13] = 10 fM peptide, 10% FBS alone = 100%
[14] = injection, sacrifice after 22 days

With Metastin[45-54] [reference compound] the “Cell Migration towards 10% FBS (%)” value [1, 9] was 53%, the “concentration needed for comparable inhibition of migration, times greater than PICM57” value ([1]; 10 nM Metastin[45-54] vs. 10 fM PICM57) was 1,000 times and the “Cell Migration towards 10% FBS (%)” value [1, 10] was 56%. For the same compound, the “Cell Migration towards 10% FBS (%)” value [1, 11] was 100%, the “Cell Migration towards 10% FBS (%)” value [1, 12] was 83% and the “Cell Migration towards 10% FBS (%)” value [1, 13] was 73%. For the same compound, the “reduction of binding of fluorescinated formyl-Nle-Leu-Phe-Nle-Tyr-Lys to the cell surface” value (FPR) was “does not modify”, the “VEGF-dependent tubule-forming activity (%)” value ([2]; 10 pM peptide) was 63% and the “VEGF-dependent tubule-forming activity (%)” value ([2]; 10 nM peptide) was 65%. For the same compound, the “VEGF-dependent tubule-forming activity (%)” value ([2]; 10 fM peptide) was 90%.
With Endostatin [reference compound] the “VEGF-dependent tubule-forming activity (%)” value ([2]; 10 nM peptide) was 30%.
With `CC(=O)N[C@@H](CCCNC(=N)N)C(=O)N[C@@H](CCC(=O)O)C(=O)N[C@@H](CCCNC(=N)N)C(=O)N[C@@H](Cc1ccccc1)C(N)=O` [PICM1, Ac-Arg-Glu-Arg-Phe-NH2] (Ac-RERF-NH2) the “Cell invasion towards 10% FBS (%)” value ([3]; 10 pM peptide) was 55%, the “Cell invasion towards 10% FBS (%)” value ([3]; 10 nM peptide) was 44% and the “Cell invasion towards 10% FBS (%)” value ([3]; 1 aM peptide, FBS without peptide = 100%) was 100%. For the same compound, the “Cell invasion towards 10% FBS (%)” value ([3]; 10 aM peptide) was 101%, the “Cell invasion towards 10% FBS (%)” value ([3]; 10 fM peptide) was 62% and the “extensive sub-pleural neoformations on macroscopic analysis of the lungs” value [4, 14] was “not observed in the treated animals”. The “pulmonary metastasis on microscopic observation” value [4, 14] was “did not exhibit the presence of metastasis”, the “histo-morphological alterations of lungs, liver, kidneys, spleen and heart” value ([4]; autopsy) was “None of the organs examined, of the controlled or treated animals, presented any histo-morphological alterations, with the exception of the lungs” and the “Cell Migration towards 10% FBS (%)” value [1, 9] was 46%. For the same compound, the “Cell Migration towards 10% FBS (%)” value ([1]; 100 pM peptide, 10% FBS alone = 100%) was 34%, the “Cell Migration towards 10% FBS (%)” value [1, 10] was 35% and the “Cell Migration towards 10% FBS (%)” value [1, 11] was 99%. The “Cell Migration towards 10% FBS (%)” value [1, 12] was 70%, the “Cell Migration towards 10% FBS (%)” value [1, 13] was 56% and the “extent of the inhibition of cell migration” value [5] was ≥ 50%. For the same compound, the “concentration at which 50% of the maximum effect on neo-angiogenesis is reached” value [2] was “fM”, the “VEGF-dependent tubule-forming activity (%)” value ([2]; 10 pM peptide) was 30% and the “VEGF-dependent tubule-forming activity (%)” value ([2]; 10 nM peptide) was 22%. The “VEGF-dependent tubule-forming activity (%)” value ([2]; 1 aM peptide, 40 ng/ml VEGF = 100%) was 104%, the “VEGF-dependent tubule-forming activity (%)” value ([2]; 10 aM peptide) was 77% and the “VEGF-dependent tubule-forming activity (%)” value ([2]; 10 fM peptide) was 65%. For the same compound, the “tubular structures at peak action (% of VEGF-only control)” value ([2]; peak action at a concentration of pM) was 20%.
In the case of `CC(=O)N[C@@H](CCCNC(=N)N)C(=O)NC(C)(C)C(=O)N[C@@H](CCCNC(=N)N)C(=O)NC(C)(Cc1ccccc1)C(N)=O` (stereo partly drawn) [PICM57, Ac-Arg-Aib-Arg-α(Me)Phe-NH2] (Ac-R[Aib]R[ξαMeF]-NH2), the “dose with all animals alive” value (rat) is reported as 58 mg/kg, the “dose with all animals dead” value (rat) is reported as 70 mg/kg and the LD50 (in vivo [6]) is reported as 30 mg/kg. The “dose with all animals alive” value (mouse) was 28 mg/kg, the “dose with all animals dead” value (mouse) was 32 mg/kg and the LD50 (in vivo [7]) was 65 mg/kg.
In the case of Metastin, the “responsiveness of B16 cells” value [8] is given as “unresponsive”.
